Test results published in paper PMC6733935, “A convenient and efficient total solid-phase synthesis of DOTA-functionalized tumor-targeting peptides for PET imaging of cancer” (EJNMMI Research, 2019).
Where two headings read alike, the source gives them in different places. Square brackets hold non-standard residues; d marks the D form. Peptide text beside a SMILES is read from it. * marks the point of attachment. DOTA = O=C(O)CN1CCN(CC(=O)O)CCN(CC(=O)*)CCN(CC(=O)O)CC1; Cha = N[C@@H](CC1CCCCC1)C(=O)O; Nle = CCCC[C@H](N)C(=O)O; Ahx = NCCCCCC(=O)O

What was measured:
[1] = test system: BN/GRP receptor-positive MDA-MB-231 tumors; experiment: Receptor blocking study in MDA-MB-231 tumor-bearing nude mice; format: in vivo
Experimental: For the receptor blocking studies, each animal was injected with excess cold of BN peptide (~ 200 μg) 20 min prior to the radiotracers injection. The animals (n = 2 per group) were sacrificed at 60 min post radiotracers injection and the % ID/g for the tumor and major organs was calculated as stated before.
^68Ga-labeled BN peptides were further investigated in nude mice carrying estrogen-independent and highly aggressive MDA-MB-231 xenografts in order to determine their potential for diagnosis of BN/GRP receptor-positive breast cancer in vivo (Table 4). […] (with 28% washout from the tumors over 2 h). […] When a blocking dose of 300 μg of nonradioactive BN peptide was injected intramuscularly for in vivo saturation of receptors 20 min prior to the administration of radiopeptide, it was observed that the uptake in the tumors was reduced by approximately 80% (0.47 ± 0.06% ID/g blocked vs. 2.32 ± 0.25% ID/g unblocked, P = 0.002), highlighting the specificity of the ^68Ga-labeled BN peptide for respective BN/GRP receptor-positive breast cancer cells. […] The tumor uptake values of other BN peptides varied from 1.78 ± 0.40% to 2.15 ± 0.33% ID/g at 1 h p.i and from 0.84 ± 0.13% to 1.37 ± 0.25% ID/g at 2 h p.i. (Table 4). With the blocking dose, good reduction in the tumors (from 51 to 80%) was attained validating the in vivo tumor receptor specificity of these radiolabeled BN peptides for BN/GRP receptor-positive breast cancer cells.

MDA-MB-231 tumor = experiment: NanoPET/CT imaging of MDA-MB-231 tumor-bearing nude mice; format: in vivo; settings: 60 min p.i.
Experimental: PET/CT scans were performed using a preclinical NanoPET/CT scanner (Mediso, Hungary) on MDA-MB-231 tumor-bearing ~ 8-week-ld female nude mice. Mice (19–23 g) were anesthetized prior to the imaging with a mixture of (100 μL, subcutaneous injection) ketamine and xylazine. One hour after the intravenous injection of radiolabeled BN peptide (100 μL peptide, 100–150 μCi, total peptide dose ~ 100 ng) via the tail vein into the anesthetized mouse, each mouse was placed in the camera in prone position and static image was acquired for 30 min. The acquired raw data in these imaging studies were reconstructed to visible image form using Interveiw Fusion software (Mediso, Hungary).

[2] = test system: PC3 prostate carcinoma xenografts; format: in vivo, nude mice; settings: for uptake in the PC3 tumors / tumor-to-blood ratio / tumor-to-muscle ratio: nude mice bearing PC3 xenografts
Experimental: BN/GRP receptor-positive MDA-MB-231 and PC3 cell lines (American Type Culture Collection, Rockville, USA) were grown as monolayers at 37 °C in a humidified atmosphere containing RPMI-1640 culture media with 10% fetal bovine serum (FBS) in tissue culture flasks. Twenty-four hours prior to conducting the tumor implantation, the media was replaced with RPMI-1640/10% FBS. The cells were grown to 80-90% confluency and harvested by trypsinization. After centrifugation, about 50 million cells were suspended in 1 mL media for implantation into mice. To prepare cells for inoculation, MDA-MB-231 or PC3 cancer cells with media were centrifuged, the media decanted, and the cell pellet was mixed with phosphate-buffered saline (PBS) to reach a concentration of approximately 5 million cells per 100 μL PBS.
Based on encouraging biological and tumor-targeting properties, ^68Ga-DOTA(cyclen)-Ahx-BN was further tested in nude mice bearing PC3 prostate carcinoma xenografts. […] Kidney was the only major organ which retained most of the radioactivity (up to 6% ID/g) after 2 h p.i. […] The tumor-to-blood and tumor-to-muscle ratios were 3.27 and 12.62 at 1 h and 2.85 and 11.40 at 2 h p.i., respectively (data not shown).

`CCCC[C@H](NC(=O)[C@H](Cc1c[nH]cn1)NC(=O)[C@H](CC1CCCCC1)NC(=O)[C@@H](NC(=O)[C@H](C)NC(=O)[C@H](Cc1c[nH]c2ccccc12)NC(=O)[C@H](CCC(N)=O)NC(=O)[C@H](CS)NC(=O)CNC(=O)CNC(=O)CCCCCNC(=O)CN1CCN(CC(=O)O)CCN(CC(=O)O)CCN(CC(=O)O)CC1)C(C)C)C(=O)N[C@@H](CCSC)C(N)=O` [^68Ga-DOTA-Ahx-BN Cyclen, metal not drawn] ({DOTA-Ahx}-GGCQWAV[Cha]H[Nle]M-NH2) was tested, and the “Tumor uptake, blocked” value ([1]; blocking dose of 300 μg nonradioactive BN peptide 20 min prior to radiopeptide, 1 h p.i., n = 2 per group) was 0.47 ± 0.06 % ID/g, the “reduction of uptake in the tumors with blocking dose” value ([1]; blocking dose of nonradioactive BN peptide 20 min prior, 1 h p.i.) was “approximately 80%” and the “blockade of uptake in pancreas with blocking dose” value ([1]; same blocking dose, maximum blockade) was 80%. The “Tumor visibility in PET image under blocking condition” value (MDA-MB-231 tumor; in the presence of 300 μg cold BN peptide) was “hardly detectable”, the “Tumor visibility in PET image” value (MDA-MB-231 tumor; ~100 ng, ~100 μCi, unblocked) was “clearly visible” and the “radioactivity retained in Kidney” value ([2]; mouse, in vivo) was “up to 6 % ID/g”. The “uptake in the PC3 tumors” value ([2]; 1 h p.i.) was 2.05 ± 0.54 % ID/g, the tumor-to-blood ratio ([2]; 1 h p.i. (data not shown)) was 3.27 and the tumor-to-muscle ratio ([2]; 1 h p.i. (data not shown)) was 12.62. The “uptake in the PC3 tumors” value ([2]; 2 h p.i.) was 1.34 ± 0.22 % ID/g, the tumor-to-blood ratio ([2]; 2 h p.i. (data not shown)) was 2.85 and the tumor-to-muscle ratio ([2]; 2 h p.i. (data not shown)) was 11.40.
